Reference: PMC12471299, “Secondary Metabolites of the Marine Sponge-Derived Fungus Aspergillus subramanianii 1901NT-1.40.2 and Their Antimicrobial and Anticancer Activities” (Marine Drugs, 2025)
Converted amounts (≈) assume the structure as drawn. Read-outs that look alike come from different tables or passages of the source.

Assays:
Candida albicans KMM 455 [1] = assay: Antimicrobial assay, growth inhibition (optical density); type: cell-based; settings: Candida albicans, C. albicans
Procedure: (§1) The Gram-positive bacterial Staphylococcus aureus ATCC 21027, Gram-negative bacterial Escherichia coli VKPM (B-7935), and yeast-like fungal Candida albicans KMM 455 strains were fermented on solid medium Mueller Hinton broth with agar (16.0 g/L) in a Petri dish at 37 °C for 24 h. The antimicrobial activity of the compound was tested at concentrations ranging from 100 µM and lower. The effect of the compound on bacterial growth was estimated as described by. Gentamicin and amphotericin B were used as positive controls against S. aureus, E. coli, and C. albicans, and a 1% dimethyl sulfoxide (DMSO) solution in PBS was used as a negative control. The optical density of the bacterial suspension after 18 h was measured at λ = 620 nm. The effect of the compound on biofilm formation for 18 h was tested using MTT reagent (Sigma-Aldrich, St. Louis, MO, USA) in accordance with. The optical density of the obtained solution was measured at λ = 570 nm. A Multiskan FS spectrophotometer (Thermo Scientific Inc., Beverly, MA, USA) was used for both assays. The results were calculated as percentages of the control data and presented as minimal concentrations reduced by 50% of growth or biofilm formation (MIC50).

[2] = tested on: Escherichia coli VKPM (B-7935); assay: as above; type: cell-based; settings: Escherichia coli; E. coli; read-out: total inhibition (MIC100) of growth
Procedure: as §1

[3] = tested on: Staphylococcus aureus ATCC 21027; assay: as above; type: cell-based; settings: Staphylococcus aureus, ATCC21027; S. aureus; read-out: total inhibition (MIC100) of growth
Procedure: as §1

Candida albicans KMM 455 [4] = assay: Biofilm formation assay (MTT); type: cell-based; settings: C. albicans
Procedure: as §1

[5] = tested on: Escherichia coli VKPM (B-7935); assay: Biofilm formation assay (MTT); type: cell-based; settings: E. coli
Procedure: as §1

[6] = tested on: Staphylococcus aureus ATCC 21027; assay: Biofilm formation assay (MTT); type: cell-based; settings: S. aureus
Procedure: as §1

[7] = Cell viability assay (MTT); type: cell-based, rat; settings: rat, H9c2 cardiomyocytes, read-out: Cytotoxicity IC50
Text: (§2) Rat cardiomyocyte H9c2 cells were kindly provided by Prof. Dr. Gunhild von Amsberg from the Martini-Klinik Prostate Cancer Center, University Hospital Hamburg-Eppendorf, Hamburg, Germany. The human HaCaT keratinocyte cell line was kindly provided by Prof. N. Fusenig (Cancer Research Centre, Heidelberg, Germany). Non-cancerous human breast epithelial MCF-10A cells were kindly provided by Dr. Irina Zhitnyak (N. N. Blokhin National Medical Research Center of Oncology, Moscow, Russia). Human breast cancer MCF-7 HTB-22 and MDA-MB-231 cells were obtained from the ATTC (Manassas, VA, USA).
(§3) H9c2 and HaCaT cells were cultured in DMEM with 10% fetal bovine serum and 1% penicillin/streptomycin (BioloT, St. Petersburg, Russia). MCF-7 and MDA-MB-231 cells were cultured in MEM (BioloT, St. Petersburg, Russia) with 10% fetal bovine serum (FBS) and 1% penicillin/streptomycin (BioloT, St. Petersburg, Russia). MCF 10A cells were cultured in DMEM F12 medium (BioloT, St. Petersburg, Russia) supplemented with 20% FBS, 20 ng/mL hrEGF (Sci-Store, Moscow, Russia), and 1% penicillin/streptomycin (BioloT, St. Petersburg, Russia). All cells were cultured at 37 °C in a humidified atmosphere containing 5% CO2.
(§4) H9c2 cells were seeded at a concentration of 3 × 10^3 cells/well. MCF-10A, MCF-7, and MDA-MB-231 cells were seeded at 5 × 10^3 cells/well, and HaCaT cells were seeded at 1 × 10^4 cells/well. The experiments were initiated after 24 h.
(§5) Compounds at concentrations up to 100 µM were added to the wells for 24h or 48 h, and the viability of the cells was measured using an MTT (3-(4,5-dimethylthiazol-2-yl)-2,5-diphenyltetrazolium bromide) assay, which was performed according to the manufacturer’s instructions (Sigma-Aldrich, Munich, Germany). […] DMSO was used as a control. The results are presented as percentages of the control data.

H9c2 cardiomyocytes = assay: Cell viability assay (MTT); type: cell-based, rat
Text: as §2, §3, §4, §5

[8] = Cell viability assay (MTT); type: cell-based, human; settings: human, read-out: Cytotoxicity IC50
Text: as §2, §3, §4, §5

HaCaT keratinocytes = assay: Cell viability assay (MTT); type: cell-based, human
Text: as §2, §3, §4, §5

[9] = tested on: MCF-10A breast epithelial cells; assay: Cell viability assay (MTT); type: cell-based, human; settings: MCF10A
Text: as §2, §3, §4, §5

[10] = tested on: MCF-7 breast cancer cells; assay: Cell viability assay (MTT); type: cell-based, human
Text: as §2, §3, §4, §5

[11] = tested on: MDA-MB-231 breast cancer cells; assay: Cell viability assay (MTT); type: cell-based, human
Text: as §2, §3, §4, §5

E. coli = tested on: E. coli; parameters: method as in PMID 28498358; settings: cited from earlier work

## C=C(C)C1CCC23C(O)CCC(C)C2(C)CCC(C)C3C1c1c[nH]c2ccccc12 (stereo not drawn) [Compound 5, 10,23-dihydro-24,25-dehydroaflavinine]
Candida albicans KMM 455 [1]; KMM455, 18 h, 18 h
  MIC50: 7 to 10 µM (≈ 2.84 to 4.06 µg/mL)
Candida albicans KMM 455 [1]; KMM455, read-out: total inhibition (MIC100) of growth
  MIC: 11.5 ± 0.9 µM (≈ 4.66 µg/mL)
[2]
  MIC: 12.4 ± 1.02 µM (≈ 5.05 µg/mL)
[3]
  MIC: 6.85 ± 0.53 µM (≈ 2.78 µg/mL)
Candida albicans KMM 455 [4]
  MIC100 of biofilm formation: 12.01 ± 1.01 µM
[5]
  MIC100 of biofilm formation: 23.08 ± 2.00 µM
[6]
  MIC100 of biofilm formation: 10.45 ± 0.96 µM
[7]; H9c2, 24 h
  IC50 at 24 h: 9.8 ± 1.3 µM
[7]; H9c2, 48 h
  IC50 at 48 h: 57.2 ± 3 µM
H9c2 cardiomyocytes; H9c2, 24 h, 1.0 µM
  cell viability: 101.9 ± 2.9 % of control
H9c2 cardiomyocytes; H9c2, 24 h, 10.0 µM
  cell viability: 50.5 ± 1.8 % of control
H9c2 cardiomyocytes; H9c2, 24 h, 100.0 µM
  cell viability: 33.6 ± 0.3 % of control
H9c2 cardiomyocytes; H9c2, 48 h, 1.0 µM
  cell viability: 105.6 ± 3.4 % of control
H9c2 cardiomyocytes; H9c2, 48 h, 10.0 µM
  cell viability: 94.0 ± 3.0 % of control
H9c2 cardiomyocytes; H9c2, 48 h, 100.0 µM
  cell viability: 10.1 ± 0.2 % of control
[8]; HaCaT keratinocytes, 24 h
  IC50 at 24 h: 52.8 ± 1.1 µM
[8]; HaCaT keratinocytes, 48 h
  IC50 at 48 h: 25.3 ± 0.8 µM
[8]; MCF-7 breast cancer cells, MCF-7, 24 h
  IC50 at 24 h: 58.6 ± 4.2 µM
[8]; MCF-7 breast cancer cells, MCF-7, 48 h
  IC50 at 48 h: 53.5 ± 1.1 µM
[8]; MCF-10A breast epithelial cells, MCF10A, 24 h
  IC50 at 24 h: 61.5 ± 1.3 µM
[8]; MCF-10A breast epithelial cells, MCF10A, 48 h
  IC50 at 48 h: 57.1 ± 2.8 µM
[8]; MDA-MB-231 breast cancer cells, MDA-MB-231, 24 h
  IC50 at 24 h: 62.9 ± 3.1 µM
[8]; MDA-MB-231 breast cancer cells, MDA-MB-231, 48 h
  IC50 at 48 h: 61.3 ± 2.1 µM
HaCaT keratinocytes; 24 h, 1.0 µM
  cell viability: 92.3 ± 5.0 % of control
HaCaT keratinocytes; 24 h, 10.0 µM
  cell viability: 88.3 ± 8.6 % of control
HaCaT keratinocytes; 24 h, 100.0 µM
  cell viability: 7.8 ± 0.3 % of control
HaCaT keratinocytes; 48 h, 1.0 µM
  cell viability: 72.2 ± 4.3 % of control
HaCaT keratinocytes; 48 h, 10.0 µM
  cell viability: 56.8 ± 4.8 % of control
HaCaT keratinocytes; 48 h, 100.0 µM
  cell viability: 16.8 ± 0.2 % of control
[9]; 24 h, 1.0 µM
  cell viability: 101.7 ± 4.4 % of control
[9]; 24 h, 10.0 µM
  cell viability: 95.4 ± 2.3 % of control
[9]; 24 h, 100.0 µM
  cell viability: 16.1 ± 8.6 % of control
[9]; 48 h, 1.0 µM
  cell viability: 92.0 ± 0.9 % of control
[9]; 48 h, 10.0 µM
  cell viability: 93.9 ± 6.4 % of control
[9]; 48 h, 100.0 µM
  cell viability: 9.9 ± 0.2 % of control
[10]; MCF-7, 24 h, 1.0 µM
  cell viability: 100.5 ± 0.9 % of control
[10]; MCF-7, 24 h, 10.0 µM
  cell viability: 97.0 ± 2.6 % of control
[10]; MCF-7, 24 h, 100.0 µM
  cell viability: 10.0 ± 1.0 % of control
[10]; MCF-7, 48 h, 1.0 µM
  cell viability: 78.5 ± 9.9 % of control
[10]; MCF-7, 48 h, 10.0 µM
  cell viability: 81.6 ± 3.3 % of control
[10]; MCF-7, 48 h, 100.0 µM
  cell viability: 21.2 ± 0.1 % of control
[11]; MDA-MB-231, 24 h, 1.0 µM
  cell viability: 96.3 ± 7.5 % of control
[11]; MDA-MB-231, 24 h, 10.0 µM
  cell viability: 91.3 ± 6.1 % of control
[11]; MDA-MB-231, 24 h, 100.0 µM
  cell viability: 21.1 ± 0.9 % of control
[11]; MDA-MB-231, 48 h, 1.0 µM
  cell viability: 103.2 ± 2.4 % of control
[11]; MDA-MB-231, 48 h, 10.0 µM
  cell viability: 102.3 ± 4.1 % of control
[11]; MDA-MB-231, 48 h, 100.0 µM
  cell viability: 10.6 ± 0.2 % of control
E. coli
  MIC50: 2.0 µg/mL (≈ 4.93 µM)
